Source: US20260250524A1, “METAL-PHENOLIC NANOPATTERNS AND METHODS OF MAKING AND USING THE SAME” (NORTHWESTERN UNIVERSITY, priority 2023, published 2026)

Assay: Solubility of polyphenols in water
Assay type: physicochemical
From the text: Methods of the disclosure can be used to design functional nanopatterns with tunable properties (e.g., mechanical properties that can be varied based on the strength of coordination between the metal ion and polyphenol). For example, the stability and mechanical properties of nanopatterns can be varied based on the strength of coordination between the metal ion and the polyphenol. […] The polymeric, multitopic structure of large polyphenols like TA can provide greater binding affinity to various substrates. These polyphenols also have other different characteristics, such as water solubility. […] This can broaden the range of ink concentrations that are suitable for tip-directed patterning.
Other inks based on different polyphenols (GA, ECG, and EGCG) were prepared according to similar protocols. […] However, ECG had limited solubility of <1 mg/mL in water. Therefore, 0.5 mg/mL was used for ECG-based inks. Unless otherwise noted, the concentration of polyphenol was 5 mg mL^−1 and the molar ratio of polyphenol to metal ion was 1:1. For GA-based inks, the molar ratio of GA to metal ion was 10:1. For the EGCG-Ni ink, the molar ratio of EGCG to Ni was 5:1. These molar ratios were determined after considering the solubility of each metal salt and the molecular weight of each polyphenol.

| solubility (in water) [µg/mL] | Compound | water solubility relative to GA, ECG, and EGCG (comparison in words) |
| --- | --- | --- |
| < 1000 | O=C(O[C@@H]1Cc2c(O)cc(O)cc2O[C@@H]1c1ccc(O)c(O)c1)c1cc(O)c(O)c(O)c1 [ECG, epicatechin gallate] | – |
| – | O=C(OC[C@H]1O[C@@H](OC(=O)c2cc(O)c(O)c(OC(=O)c3cc(O)c(O)c(O)c3)c2)[C@H](OC(=O)c2cc(O)c(O)c(OC(=O)c3cc(O)c(O)c(O)c3)c2)[C@@H](OC(=O)c2cc(O)c(O)c(OC(=O)c3cc(O)c(O)c(O)c3)c2)[C@@H]1OC(=O)c1cc(O)c(O)c(OC(=O)c2cc(O)c(O)c(O)c2)c1)c1cc(O)c(O)c(OC(=O)c2cc(O)c(O)c(O)c2)c1 [TA, Tannic acid] | substantially higher solubility |
